One compound from ChEMBL document CHEMBL4507261, “Data for DCP probe A-192621” (2021) can be followed below.

The source made the active and inactive calls. The rule behind the calls is not given here.

In assay [1] the target is 5-hydroxytryptamine receptor 7 (Homo sapiens) (UniProt P34969). Particulars: Compound concentration 10.0 uM.
The target of assay [2] is Kappa-type opioid receptor (Homo sapiens) (UniProt P41145). Particulars: Compound concentration 10.0 uM.
Assay [3] addresses T1, Endothelin receptor type B (Homo sapiens, UniProt P24530). The experiment in a line: EDNRB- dependent phosphatidylinositol hydrolysis assay. The assay is classed as functional.
The target of assay [4] is Sigma non-opioid intracellular receptor 1 (Homo sapiens) (UniProt Q99720). The note with it: Compound concentration 10.0 uM.
Sigma non-opioid intracellular receptor 1 (Homo sapiens), sequence (Q99720 whole entry): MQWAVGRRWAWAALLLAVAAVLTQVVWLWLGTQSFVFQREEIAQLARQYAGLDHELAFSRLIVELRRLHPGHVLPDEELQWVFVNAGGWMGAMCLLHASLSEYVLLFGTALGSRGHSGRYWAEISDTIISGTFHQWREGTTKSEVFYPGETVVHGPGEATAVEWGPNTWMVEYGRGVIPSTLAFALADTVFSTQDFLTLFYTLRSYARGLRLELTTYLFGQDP
Assay [5] deals with Sodium-dependent serotonin transporter (Homo sapiens) (UniProt P31645). Particulars: Compound concentration 10.0 uM.
Sodium-dependent serotonin transporter (Homo sapiens), sequence (P31645 whole entry, looked up): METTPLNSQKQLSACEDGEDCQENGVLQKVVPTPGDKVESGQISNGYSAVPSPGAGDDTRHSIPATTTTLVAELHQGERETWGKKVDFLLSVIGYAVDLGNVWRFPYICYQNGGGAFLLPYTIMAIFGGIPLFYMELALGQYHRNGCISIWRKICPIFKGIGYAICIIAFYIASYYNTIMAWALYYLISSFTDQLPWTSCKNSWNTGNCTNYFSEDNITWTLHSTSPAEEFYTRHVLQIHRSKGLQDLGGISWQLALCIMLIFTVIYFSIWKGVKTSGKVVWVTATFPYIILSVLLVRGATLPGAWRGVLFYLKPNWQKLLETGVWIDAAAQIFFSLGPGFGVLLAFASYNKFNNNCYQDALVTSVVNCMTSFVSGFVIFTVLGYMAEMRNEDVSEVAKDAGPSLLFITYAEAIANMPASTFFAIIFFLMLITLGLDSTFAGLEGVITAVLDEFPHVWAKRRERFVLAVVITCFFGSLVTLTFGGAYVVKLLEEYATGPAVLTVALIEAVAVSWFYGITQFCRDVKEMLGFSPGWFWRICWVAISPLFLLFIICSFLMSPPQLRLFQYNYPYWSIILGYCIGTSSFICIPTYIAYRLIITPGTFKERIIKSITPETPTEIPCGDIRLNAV
Assay [6] concerns the target T1, Endothelin receptor type B. The experiment in a line: Eurofins cellular functional assay - Antagonist (EDNRB).
Assay [7] concerns the target 5-hydroxytryptamine receptor 5A (Homo sapiens) (UniProt P47898). Particulars: Compound concentration 10.0 uM.
Assay [8] addresses Sigma intracellular receptor 2 (Homo sapiens) (UniProt Q5BJF2). The note with it: Compound concentration 10.0 uM.
The target in assay [9] is D(1B) dopamine receptor (Homo sapiens) (UniProt P21918). The note with it: Compound concentration 10.0 uM.
D(1B) dopamine receptor (Homo sapiens), sequence (P21918 whole entry): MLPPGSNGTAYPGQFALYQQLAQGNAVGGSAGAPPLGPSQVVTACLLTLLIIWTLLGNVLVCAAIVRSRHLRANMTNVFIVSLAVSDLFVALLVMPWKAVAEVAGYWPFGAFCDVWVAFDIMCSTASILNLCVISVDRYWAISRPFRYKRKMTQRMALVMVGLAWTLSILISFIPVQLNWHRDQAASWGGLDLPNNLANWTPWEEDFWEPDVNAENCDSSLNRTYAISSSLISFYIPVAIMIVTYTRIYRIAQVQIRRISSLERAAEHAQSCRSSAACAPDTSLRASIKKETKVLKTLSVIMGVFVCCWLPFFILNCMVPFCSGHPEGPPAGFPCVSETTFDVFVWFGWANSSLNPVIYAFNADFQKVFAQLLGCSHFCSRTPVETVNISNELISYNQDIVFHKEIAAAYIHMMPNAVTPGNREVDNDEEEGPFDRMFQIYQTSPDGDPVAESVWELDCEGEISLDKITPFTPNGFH
The target in assay [10] is T2, Alpha-2A adrenergic receptor (Homo sapiens) (UniProt P08913).
T2 sequence (whole entry): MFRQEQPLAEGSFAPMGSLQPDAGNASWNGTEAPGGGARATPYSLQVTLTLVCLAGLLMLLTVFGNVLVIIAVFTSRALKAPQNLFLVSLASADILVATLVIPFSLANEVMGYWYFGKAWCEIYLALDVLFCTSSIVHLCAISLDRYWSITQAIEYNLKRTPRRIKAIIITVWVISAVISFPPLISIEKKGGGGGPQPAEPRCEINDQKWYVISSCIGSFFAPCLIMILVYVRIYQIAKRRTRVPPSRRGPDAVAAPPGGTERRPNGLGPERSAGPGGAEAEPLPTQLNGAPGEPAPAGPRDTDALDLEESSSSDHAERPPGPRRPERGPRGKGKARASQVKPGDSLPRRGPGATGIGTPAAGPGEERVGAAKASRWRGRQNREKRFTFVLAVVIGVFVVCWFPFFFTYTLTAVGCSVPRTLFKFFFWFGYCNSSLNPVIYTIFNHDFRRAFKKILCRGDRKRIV
The note with it: Compound concentration 10.0 uM.

Assay [11] concerns the target 5-hydroxytryptamine receptor 2A (Homo sapiens) (UniProt P28223). Particulars: Compound concentration 10.0 uM.
Assay [12] deals with T3, Muscarinic acetylcholine receptor M2 (Homo sapiens) (UniProt P08172).
T3 sequence (whole entry): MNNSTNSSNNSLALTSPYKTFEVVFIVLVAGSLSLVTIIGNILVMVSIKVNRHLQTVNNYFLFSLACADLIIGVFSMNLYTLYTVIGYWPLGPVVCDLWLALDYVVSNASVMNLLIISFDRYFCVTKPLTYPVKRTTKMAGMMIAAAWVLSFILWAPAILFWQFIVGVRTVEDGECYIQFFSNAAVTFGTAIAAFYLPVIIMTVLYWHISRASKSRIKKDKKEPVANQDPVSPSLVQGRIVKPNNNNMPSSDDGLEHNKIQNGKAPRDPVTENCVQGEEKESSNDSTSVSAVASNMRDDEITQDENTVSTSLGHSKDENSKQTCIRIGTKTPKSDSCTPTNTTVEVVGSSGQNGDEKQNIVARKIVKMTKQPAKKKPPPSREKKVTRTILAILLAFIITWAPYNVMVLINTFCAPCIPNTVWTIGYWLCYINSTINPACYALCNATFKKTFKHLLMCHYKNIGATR
The note with it: Compound concentration 10.0 uM.

The target in assay [13] is Histamine H4 receptor (Homo sapiens) (UniProt Q9H3N8). The note with it: Compound concentration 10.0 uM.
Histamine H4 receptor (Homo sapiens), sequence (Q9H3N8 whole entry): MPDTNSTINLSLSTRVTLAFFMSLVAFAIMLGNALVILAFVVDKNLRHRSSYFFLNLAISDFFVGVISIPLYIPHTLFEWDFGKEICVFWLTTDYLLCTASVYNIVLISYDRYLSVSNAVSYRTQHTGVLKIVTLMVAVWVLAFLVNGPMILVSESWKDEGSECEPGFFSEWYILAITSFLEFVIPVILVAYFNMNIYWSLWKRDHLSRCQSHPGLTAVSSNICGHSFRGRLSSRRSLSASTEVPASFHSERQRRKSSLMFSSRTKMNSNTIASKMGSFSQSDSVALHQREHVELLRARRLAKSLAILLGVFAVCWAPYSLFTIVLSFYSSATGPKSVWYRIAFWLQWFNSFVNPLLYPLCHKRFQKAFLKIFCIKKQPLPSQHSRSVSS
Assay [14] deals with Mu-type opioid receptor (Homo sapiens) (UniProt P35372). Particulars: Compound concentration 10.0 uM.
Assay [15] addresses T4, 5-hydroxytryptamine receptor 2C (Homo sapiens) (UniProt P28335).
T4 sequence (whole entry): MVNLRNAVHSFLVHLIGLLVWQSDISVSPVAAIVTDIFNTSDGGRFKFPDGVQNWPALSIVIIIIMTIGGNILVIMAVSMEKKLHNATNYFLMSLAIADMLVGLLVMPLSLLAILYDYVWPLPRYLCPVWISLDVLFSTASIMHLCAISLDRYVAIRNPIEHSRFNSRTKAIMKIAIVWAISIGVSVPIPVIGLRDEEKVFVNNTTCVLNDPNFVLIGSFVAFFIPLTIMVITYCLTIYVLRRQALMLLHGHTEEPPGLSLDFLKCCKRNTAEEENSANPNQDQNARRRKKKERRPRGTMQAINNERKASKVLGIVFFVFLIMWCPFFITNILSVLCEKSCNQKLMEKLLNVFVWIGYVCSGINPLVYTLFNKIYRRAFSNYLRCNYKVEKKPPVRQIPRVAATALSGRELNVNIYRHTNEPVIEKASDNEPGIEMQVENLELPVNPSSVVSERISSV
The note with it: Compound concentration 10.0 uM.

The target of assay [16] is T5, Alpha-1A adrenergic receptor (Homo sapiens) (UniProt P35348).
T5 sequence (whole entry): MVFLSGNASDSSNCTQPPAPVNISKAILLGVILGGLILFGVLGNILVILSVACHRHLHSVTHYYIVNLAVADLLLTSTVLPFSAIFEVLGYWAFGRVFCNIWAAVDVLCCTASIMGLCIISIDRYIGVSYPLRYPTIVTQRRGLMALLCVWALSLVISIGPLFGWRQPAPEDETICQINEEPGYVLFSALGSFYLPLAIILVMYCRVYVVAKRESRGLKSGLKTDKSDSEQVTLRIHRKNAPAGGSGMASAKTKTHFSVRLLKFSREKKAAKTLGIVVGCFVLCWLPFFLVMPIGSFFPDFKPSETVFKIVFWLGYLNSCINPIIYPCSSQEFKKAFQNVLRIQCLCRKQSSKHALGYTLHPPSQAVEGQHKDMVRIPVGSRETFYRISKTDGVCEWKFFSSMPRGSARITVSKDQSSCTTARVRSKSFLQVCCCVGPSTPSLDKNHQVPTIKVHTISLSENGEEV
The note with it: Compound concentration 10.0 uM.

For assay [17], the target named is D(4) dopamine receptor (Homo sapiens) (UniProt P21917). Particulars: Compound concentration 10.0 uM.
D(4) dopamine receptor (Homo sapiens), sequence (P21917 whole entry): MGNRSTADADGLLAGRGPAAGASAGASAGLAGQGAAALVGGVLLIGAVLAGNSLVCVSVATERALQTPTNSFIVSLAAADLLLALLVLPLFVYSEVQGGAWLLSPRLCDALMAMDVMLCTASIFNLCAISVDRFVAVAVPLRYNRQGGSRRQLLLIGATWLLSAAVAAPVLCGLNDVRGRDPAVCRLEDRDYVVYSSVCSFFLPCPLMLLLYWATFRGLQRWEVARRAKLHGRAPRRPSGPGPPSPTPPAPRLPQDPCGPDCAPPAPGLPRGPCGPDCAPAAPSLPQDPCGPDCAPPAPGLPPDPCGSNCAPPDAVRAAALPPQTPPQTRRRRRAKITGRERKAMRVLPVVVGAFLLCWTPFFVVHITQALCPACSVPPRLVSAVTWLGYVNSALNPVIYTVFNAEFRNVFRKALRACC
Assay [18] addresses Delta-type opioid receptor (Homo sapiens) (UniProt P41143). The note with it: Compound concentration 10.0 uM.

T1 sequence (P24530 whole entry): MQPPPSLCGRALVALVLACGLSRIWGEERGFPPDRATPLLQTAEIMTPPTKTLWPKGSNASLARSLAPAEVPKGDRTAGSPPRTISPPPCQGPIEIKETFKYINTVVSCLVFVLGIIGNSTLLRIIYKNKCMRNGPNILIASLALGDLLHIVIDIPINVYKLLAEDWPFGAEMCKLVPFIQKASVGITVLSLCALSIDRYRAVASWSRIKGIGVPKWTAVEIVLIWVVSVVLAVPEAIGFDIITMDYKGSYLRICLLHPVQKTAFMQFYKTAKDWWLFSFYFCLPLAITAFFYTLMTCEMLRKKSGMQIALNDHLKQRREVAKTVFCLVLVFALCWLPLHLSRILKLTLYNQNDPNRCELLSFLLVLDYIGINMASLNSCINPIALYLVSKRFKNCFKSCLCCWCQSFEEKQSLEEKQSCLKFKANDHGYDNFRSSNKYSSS
Kappa-type opioid receptor (Homo sapiens), sequence (P41145 whole entry): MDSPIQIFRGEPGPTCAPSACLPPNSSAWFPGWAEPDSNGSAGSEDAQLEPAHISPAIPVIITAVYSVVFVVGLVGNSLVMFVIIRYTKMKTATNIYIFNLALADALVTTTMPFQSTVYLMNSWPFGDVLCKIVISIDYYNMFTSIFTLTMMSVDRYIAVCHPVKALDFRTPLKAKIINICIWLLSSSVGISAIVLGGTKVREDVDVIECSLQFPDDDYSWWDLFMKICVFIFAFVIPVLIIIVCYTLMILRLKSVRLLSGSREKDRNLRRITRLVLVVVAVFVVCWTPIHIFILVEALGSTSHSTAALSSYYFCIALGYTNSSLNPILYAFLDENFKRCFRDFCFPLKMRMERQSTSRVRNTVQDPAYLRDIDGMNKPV
Delta-type opioid receptor (Homo sapiens), sequence (P41143 whole entry): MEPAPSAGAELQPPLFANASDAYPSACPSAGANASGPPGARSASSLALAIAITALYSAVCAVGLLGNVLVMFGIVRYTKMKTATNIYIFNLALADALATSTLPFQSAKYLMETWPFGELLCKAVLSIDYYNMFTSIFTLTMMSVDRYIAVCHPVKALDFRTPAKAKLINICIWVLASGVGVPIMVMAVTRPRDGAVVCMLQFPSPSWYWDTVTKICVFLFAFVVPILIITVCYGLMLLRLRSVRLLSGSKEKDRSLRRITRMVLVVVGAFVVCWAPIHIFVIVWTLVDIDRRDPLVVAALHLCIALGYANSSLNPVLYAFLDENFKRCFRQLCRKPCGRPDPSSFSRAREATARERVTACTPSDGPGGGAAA
5-hydroxytryptamine receptor 5A (Homo sapiens), sequence (P47898 whole entry): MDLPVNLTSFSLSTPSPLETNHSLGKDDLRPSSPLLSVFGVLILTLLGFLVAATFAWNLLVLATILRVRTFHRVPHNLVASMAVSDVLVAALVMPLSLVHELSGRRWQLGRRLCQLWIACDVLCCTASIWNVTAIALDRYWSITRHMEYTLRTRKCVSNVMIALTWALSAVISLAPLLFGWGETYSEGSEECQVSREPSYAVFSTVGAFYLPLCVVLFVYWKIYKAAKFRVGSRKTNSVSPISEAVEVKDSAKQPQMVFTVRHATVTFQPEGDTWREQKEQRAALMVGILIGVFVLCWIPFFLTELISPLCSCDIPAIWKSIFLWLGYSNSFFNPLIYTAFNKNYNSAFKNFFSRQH
5-hydroxytryptamine receptor 7 (Homo sapiens), sequence (P34969 whole entry): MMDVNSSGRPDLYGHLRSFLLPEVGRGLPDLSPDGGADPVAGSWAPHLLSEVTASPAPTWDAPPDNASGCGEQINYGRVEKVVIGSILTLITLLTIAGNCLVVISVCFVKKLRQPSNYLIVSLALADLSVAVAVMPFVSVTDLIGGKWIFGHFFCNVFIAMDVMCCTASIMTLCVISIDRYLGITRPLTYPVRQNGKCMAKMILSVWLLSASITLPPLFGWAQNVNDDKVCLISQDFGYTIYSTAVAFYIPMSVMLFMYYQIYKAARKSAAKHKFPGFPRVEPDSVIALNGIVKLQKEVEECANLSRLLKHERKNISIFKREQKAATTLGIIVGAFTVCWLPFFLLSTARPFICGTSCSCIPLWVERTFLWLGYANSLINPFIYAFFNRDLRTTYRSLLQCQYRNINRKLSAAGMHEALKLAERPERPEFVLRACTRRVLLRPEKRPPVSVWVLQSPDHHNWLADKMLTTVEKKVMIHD
Sigma intracellular receptor 2 (Homo sapiens), sequence (Q5BJF2 whole entry): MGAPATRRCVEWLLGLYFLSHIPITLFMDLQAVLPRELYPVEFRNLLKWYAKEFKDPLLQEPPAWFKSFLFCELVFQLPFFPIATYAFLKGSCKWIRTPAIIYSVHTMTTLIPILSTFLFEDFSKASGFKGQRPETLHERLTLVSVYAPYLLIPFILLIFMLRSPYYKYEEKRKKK
5-hydroxytryptamine receptor 2A (Homo sapiens), sequence (P28223 whole entry): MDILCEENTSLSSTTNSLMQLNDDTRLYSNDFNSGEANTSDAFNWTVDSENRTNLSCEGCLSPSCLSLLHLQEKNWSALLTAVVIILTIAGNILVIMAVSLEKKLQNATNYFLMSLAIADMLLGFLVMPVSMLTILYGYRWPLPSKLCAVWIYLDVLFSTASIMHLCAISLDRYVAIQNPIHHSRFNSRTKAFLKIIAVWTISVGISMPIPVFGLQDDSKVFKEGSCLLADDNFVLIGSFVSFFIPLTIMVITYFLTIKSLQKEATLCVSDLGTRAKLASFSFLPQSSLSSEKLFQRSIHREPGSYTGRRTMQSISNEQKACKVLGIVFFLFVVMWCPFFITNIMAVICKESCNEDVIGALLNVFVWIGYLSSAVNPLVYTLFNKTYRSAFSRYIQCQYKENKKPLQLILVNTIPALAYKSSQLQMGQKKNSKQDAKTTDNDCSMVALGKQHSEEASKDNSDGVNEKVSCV

A word on the inhibition: it is the drop in the measured response relative to a control, in per cent. The term IC50 denotes the concentration that inhibits the measured activity by half. On to `CCCOc1ccc([C@H]2[C@H](C(=O)O)[C@@H](c3ccc4c(c3)OCO4)CN2CC(=O)Nc2c(CC)cccc2CC)cc1` [A-192621], for which the inhibition is -3.72% in [1]; 35.3% in assay [2]; 4.29% in [4]; 10.6% in assay [5]; -0.22% in assay [7]; -7.1% in [8]. Moreover, the inhibition in [9] was 11%; in [10] it was 9.55%; in assay [11], 4.84%; in assay [12], -5.3%; in assay [13] it was 7.94%; in assay [14] it was 6.79%. Besides, the inhibition is -5.44% in assay [15], -9.09% in assay [16], -3.59% in assay [17] and 9.89% in [18]. In addition, the concentration for half-maximal inhibition (IC50) in assay [3] is 0.8 nM (active); in [6], 6.5 nM (active).
